# Where no end group is shown, it is not given here.
# Tested on: EL-4 cells labeled with 51Cr and pulsed with the peptide Flu366-374
# Conditions: administered alone using the osmotic pump (100 µg peptide or 10^5 U IFN-α, subcutaneous, 3-day release); spleen 7 days after administration, 5 days re-stimulation; Fig. 1(A)
sequence,measurement,value
"ASNESMETM [peptide, Ala-Ser-Asn-Glu-Ser-Met-Glu-Thr-Met]",peptide-specific CTL induction (cytotoxic activity for peptide-pulsed EL-4 cells),no peptide-specific CTL was induced
